pIC50: −log10 of the molar value.
Target: T1, GST-ALK5 (Homo sapiens, UniProt P36897)
T1 sequence (P36897 34-503): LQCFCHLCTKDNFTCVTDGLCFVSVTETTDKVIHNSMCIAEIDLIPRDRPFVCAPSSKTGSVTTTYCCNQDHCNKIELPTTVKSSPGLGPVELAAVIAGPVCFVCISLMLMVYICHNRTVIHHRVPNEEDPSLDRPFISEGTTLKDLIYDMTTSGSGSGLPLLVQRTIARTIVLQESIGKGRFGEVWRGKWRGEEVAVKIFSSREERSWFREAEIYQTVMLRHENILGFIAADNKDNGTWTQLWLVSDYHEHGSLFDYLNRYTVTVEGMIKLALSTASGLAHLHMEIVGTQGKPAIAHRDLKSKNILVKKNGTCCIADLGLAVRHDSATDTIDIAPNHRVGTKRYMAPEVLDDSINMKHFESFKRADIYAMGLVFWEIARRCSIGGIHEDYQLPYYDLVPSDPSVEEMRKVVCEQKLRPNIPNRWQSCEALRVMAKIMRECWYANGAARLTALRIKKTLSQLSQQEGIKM
Experiment: In-vitro (enzyme) kinase assay, 384-well flashplate, inhibition of TGF-beta receptor I kinase
Assay type: biochemical
Conditions: 31.2 nM GST-ALK5, 439 nM GST-SMAD2, 3 mM ATP (33P-ATP), 30° C., 45 min
Protocol: In-Vitro (Enzyme) Assay for the Determination of the Efficacy of Inhibitors of the Inhibition of TGF-Beta-Promoted Effects Vermittelten Wirkungen
The kinase assay is carried out as 384-well flashplate assay. 31.2 nM of GST-ALK5, 439 nM of GST-SMAD2 and 3 mM of ATP (with 0.3 μCi of ^33P-ATP/well) are incubated in a total volume of 35 μl (20 mM of HEPES, 10 mM of MgCl, 5 mM of MnCl, 1 mM of DTT, 0.1% of BSA, pH 7.4) without or with test substance (5-10 concentrations) at 30° C. for 45 min. The reaction is stopped using 25 μl of 200 mM EDTA solution, filtered with suction at room temperature after 30 min, and the wells are washed with 3 times 100 μl of 0.9% NaCl solution. Radioactivity is measured in the TopCount. The IC50 values are calculated using RS1.

Structure (SMILES)	pIC50
C#CCNc1nc(-c2cccc(C)n2)c2c(N)c(C(N)=O)sc2n1 [Compound A52, 5-amino-4-(6-methylpyridin-2-yl)-2-prop-2-ynylaminothieno[2,3-d]pyrimidine-6-carboxamide]	7.27
C=CCNc1nc(-c2ccc(C)o2)c2c(N)c(C(N)=O)sc2n1 [Compound A42, 2-allylamino-5-amino-4-(5-methylfuran-2-yl)-thieno[2,3-d]pyrimidine-6-carboxamide]	7.17
CSc1nc(-c2ccc(C)o2)c2c(N)c(C(N)=O)sc2n1 [Compound A10, 5-Amino-4-(5-methylfuran-2-yl)-2-methyl-sulfanylthieno[2,3-d]pyrimidine-6-carboxamide]	7.34
CC(C)(C)c1nc(-c2ccco2)c2c(N)c(C(N)=O)sc2n1 [Compound A25, 5-amino-2-tert-butyl-4-furan-2-ylthieno[2,3-d]pyrimidine-6-carboxamide]	7.06
CSc1nc(-c2ccco2)c2c(N)c(C(N)=O)sc2n1 [Compound A8, 5-amino-4-furan-2-yl-2-methylsulfanylthieno[2,3-d]pyrimidine-6-carboxamide]	7.01
C=CCNc1nc(-c2cccc(C)n2)c2c(N)c(C(N)=O)sc2n1 [Compound A50, 2-allylamino-5-amino-4-(6-methylpyridin-2-yl)thieno[2,3-d]pyrimidine-6-carboxamide]	7.66
Cc1ccc(-c2nc(C(C)(C)C)nc3sc(C(N)=O)c(N)c23)o1 [Compound A26, 5-amino-2-tert-butyl-4-(5-methylfuran-2-yl)thieno[2,3-d]pyrimidine-6-carboxamide]	7.11
Cc1cccc(-c2nc(NCCC#N)nc3sc(C(N)=O)c(N)c23)n1 [Compound A56, 5-amino-2-(2-cyanoethylamino)-4-(6-methylpyridin-2-yl)thieno[2,3-d]-pyrimidine-6-carboxamide]	7.10
CNc1nc(-c2ccc(C)o2)c2c(N)c(C(N)=O)sc2n1 [Compound A34, 5-amino-2-methylamino-4-(5-methylfuran-2-yl)thieno[2,3-d]pyrimidine-6-carboxamide]	7.44
Cc1ccc(-c2nc(C3CC3)nc3sc(C(N)=O)c(N)c23)o1 [Compound A1, 5-amino-2-cyclopropyl-4-(5-methylfuran-2-yl)-thieno[2,3-d]pyrimidine-6-carboxamide]	7.32

— patent US20110028472A1, “THIENOPYRIMIDINES” (MERCK PATENT CESELLSCHAFT MIT BESCHRANKTER HAFTUNG, priority 2008, published 2011)
